Measurements reported in patent US20240190887A1, “COMPOUND USED AS SHP2 INHIBITOR AND USE THEREOF” (TYK MEDICINES, INC., priority 2021, published 2024).

Experiments:
full-length SHP2 protein = molecular target: T1, full-length SHP2 protein (Homo sapiens, UniProt Q06124); assay: In vitro SHP2 enzyme activity inhibition (DiFMUP substrate, SHP2 activating peptide); assay type: biochemical; settings: full-length SHP2 protein with activating peptide, 8 concentrations, read-out: IC50 of compounds inhibiting SHP2 enzyme activity
T1 construct: Purified full-length SHP2 protein (Kamed Bio-Tianjin); purchased Kamed Bio-Tianjin
T1 sequence (Q06124 1-593): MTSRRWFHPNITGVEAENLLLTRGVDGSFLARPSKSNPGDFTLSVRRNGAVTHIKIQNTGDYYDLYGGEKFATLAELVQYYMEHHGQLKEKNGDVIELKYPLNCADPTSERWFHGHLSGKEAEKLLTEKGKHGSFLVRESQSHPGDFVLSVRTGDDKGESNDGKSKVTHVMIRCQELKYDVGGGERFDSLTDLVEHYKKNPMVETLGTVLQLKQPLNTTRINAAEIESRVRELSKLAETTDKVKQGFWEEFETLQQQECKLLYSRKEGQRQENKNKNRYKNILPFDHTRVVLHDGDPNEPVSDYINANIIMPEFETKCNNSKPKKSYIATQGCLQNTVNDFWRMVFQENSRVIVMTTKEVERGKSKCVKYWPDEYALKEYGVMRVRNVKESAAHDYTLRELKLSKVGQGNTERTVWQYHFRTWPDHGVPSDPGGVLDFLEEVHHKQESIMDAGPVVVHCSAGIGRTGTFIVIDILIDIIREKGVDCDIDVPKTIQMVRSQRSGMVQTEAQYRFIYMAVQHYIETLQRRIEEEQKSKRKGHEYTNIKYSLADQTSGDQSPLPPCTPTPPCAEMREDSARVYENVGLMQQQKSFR
Procedure: • a) Purified full-length SHP2 protein (Kamed Bio-Tianjin) • b) SHP2 activating peptide (BPS Bioscience). • c) DiFMUP. • d) Reaction buffer (120 mM HEPES pH 7.2, 200 mM NaCl, 1 mM EDTA, 0.002% Brij35), added with 0.04% BSA after autoclave, stored at 4° C.; diluted to 1× before use, and added with 2 mM DTT.
• a) The 384-well plates were filled with 10 uL solution of compound to be tested (No. 2), 3-fold gradient dilution, totaling 8 concentrations; • b) The sample wells to be tested were added with 5 uL of […] activating peptide (No. 4, 2 uM) and 5 uL of 4×full-length SHP2 protein (0.88 nM), control wells were free of inhibitor, and blank wells were free of SHP2 activating peptide and inhibitor; • c) 384-well plate was sealed, mixed well and incubated at room temperature for 1 hr; • d) After adding 5 uL 5×DiFMUP (125 uM), 384-well plate was sealed, mixed well and incubated at room temperature for 1 hr, and then detected by En Vision;
% Inhibition=[1−(RFUsample−RFUblank)/(RFUtotal−RFUblank)]×100
Non-linear regression analysis was performed using Graphpad 8.0, and the IC50 values for each compound were obtained by fitting a curve of enzyme activity with compound concentration through the equation Y=Bottom+(Top−Bottom)/(1+10^((LogIC50−X)*Hill Slope)).

MV4-11 cells = assay: Compound activity in MV4-11 cells (72 hr, cell viability by CTG method); assay type: cell-based; settings: Homo sapiens, 72 hr incubation
Procedure: MV4-11 cells in logarithmic growth phase were taken, prepared into cell suspension, inoculated in 96-well plates at 160 uL/well with an inoculation density of 5000 cells/well, and cultured overnight in a 37° C. cell culture incubator. A 5× solution of the compound to be tested was prepared with 4-fold gradient dilution, and a total of 8 concentrations with double duplicate wells. The solution of the compound to be tested was added into 96-well plate at 40 uL/well, and the blank and control wells were added with corresponding volume of solvent, shaken and mixed well, and then incubated in 37° C. cell incubator for 72 hr, and the cell viability was detected by CTG method.
Equation (Sample−blank)/(control−blank)*100% was used to convert raw data to inhibition rate, and the IC50 value could be obtained by curve fitting with four parameters (obtained with “log(inhibitor) vs. response—Variable slope” model in GraphPad Prism), and the results are shown in Table III. (In the table below, the following designations are used: <100 nM=A; 100-500 nM=B; >500 nM=C).

Row | Structure (SMILES) | IC50 (full-length SHP2 protein) [nM] | IC50 (MV4-11 cells) [nM]
1 | C[C@@H]1OCC2(CCN(c3nc4cnn(-c5cccc6c5CCN6C)c4nc3CO)CC2)[C@@H]1N [Compound C13] | < 50 | 
2 | C[C@@H]1OCC2(CCN(c3nc4cnn(-c5ccc6cn[nH]c6c5)c4nc3CO)CC2)[C@@H]1N [Compound C15] | < 50 | < 100
3 | Cc1nc(N2CCC3(CC2)CO[C@@H](C)[C@H]3N)c(CO)nc1Sc1ccnc(N)c1Cl [RMC-4630, reference compound] | < 50 | < 100
4 | C[C@@H]1OCC2(CCN(c3nc4cnn(-c5ccc6c(cnn6C)c5)c4nc3CO)CC2)[C@@H]1N [Compound C11] | < 50 | < 100
5 | C[C@@H]1OCC2(CCN(c3nc4cnn(-c5ccc6cnn(C)c6c5)c4nc3C(F)F)CC2)[C@@H]1N [Compound C16] | < 50 | 
6 | C[C@@H]1OCC2(CCN(c3nc4cnn(-c5ccc6ccn(C)c6c5)c4nc3CO)CC2)[C@@H]1N [Compound C12] | < 50 | < 100
7 | CCn1ncc2ccc(-n3ncc4nc(N5CCC6(CC5)CO[C@@H](C)[C@H]6N)c(CO)nc43)cc21 [Compound C18] | < 50 | 
8 | C[C@@H]1OCC2(CCN(c3nc4cnn(-c5ccnc(N)c5Cl)c4nc3CO)CC2)[C@@H]1N [WO2021148010A1 Example 5, reference compound] | 50 to 500 | 100 to 500
9 | C[C@@H]1OCC2(CCN(c3nc4cnn(-c5ccc6cnn(C)c6c5)c4nc3CO)CC2)[C@@H]1N [Compound C4] | < 50 | < 100

The next lines start with the values.

Row | IC50 (full-length SHP2 protein) [nM] | IC50 (MV4-11 cells) [nM] | Structure (SMILES)
10 | < 50 | < 100 | C[C@@H]1OCC2(CCN(c3nc4cnn(-c5ccc6nnn(C)c6c5)c4nc3CO)CC2)[C@@H]1N [Compound C17]
11 | < 50 |  | C[C@@H]1OCC2(CCN(c3nc4cnn(-c5ccc6cn(C)nc6c5)c4nc3CO)CC2)[C@@H]1N [Compound C14]
12 | < 50 | < 100 | C[C@@H]1OCC2(CCN(c3nc4cnn(-c5ccc6nn(C)cc6c5Cl)c4nc3CO)CC2)[C@@H]1N [Compound C6]
13 | < 50 | < 100 | C[C@@H]1OCC2(CCN(c3nc4cnn(-c5cccc6c5ccn6C)c4nc3CO)CC2)[C@@H]1N [Compound C5]
